# Laboratory results taken from ChEMBL document CHEMBL1138714, “Isosteric N-arylpiperazine replacements in a series of dihydropyridine NPY1 receptor antagonists” (Bioorg Med Chem Lett, 2004).
# Target: T1, Neuropeptide Y receptor type 1 (Homo sapiens, UniProt P25929)
# T1 sequence (P25929 whole entry): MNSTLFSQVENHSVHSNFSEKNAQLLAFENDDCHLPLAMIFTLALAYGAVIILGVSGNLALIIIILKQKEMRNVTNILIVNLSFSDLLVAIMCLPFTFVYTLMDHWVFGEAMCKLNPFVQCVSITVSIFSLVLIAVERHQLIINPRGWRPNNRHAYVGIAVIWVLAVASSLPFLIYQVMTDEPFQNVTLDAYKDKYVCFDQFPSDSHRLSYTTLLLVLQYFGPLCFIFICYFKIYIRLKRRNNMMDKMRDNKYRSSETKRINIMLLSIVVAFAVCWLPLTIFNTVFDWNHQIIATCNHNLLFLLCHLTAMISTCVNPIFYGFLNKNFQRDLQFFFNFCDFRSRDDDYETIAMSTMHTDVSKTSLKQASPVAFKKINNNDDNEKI
# Test: Antagonist activity towards Neuropeptide Y receptor type 1
# Type: functional
row,Ki,SMILES
1,3.6 nM,COC(=O)C1=C(C)N=C(C)/C(=C(/O)OC)C1c1cccc(N/C(=N/CCNC2CCN(c3ccccc3OC)CC2)NC#N)c1 (stereo unspecified)
2,1.9 nM,COC(=O)C1=C(C)N=C(C)/C(=C(/O)OC)C1c1cccc(NC(=O)NCCNC2CCN(c3ccccc3OC)CC2)c1 (stereo unspecified)

# Tested on: not listed separately
# Test: Tested for inhibition of the forskolin-stimulated cAMP production
# Type: functional
row,SMILES,Kb
1,COC(=O)C1=C(C)N=C(C)/C(=C(/O)OC)C1c1cccc(N/C(=N/CCNC2CCN(c3ccccc3OC)CC2)NC#N)c1 (stereo unspecified),9.4 nM
2,COC(=O)C1=C(C)N=C(C)/C(=C(/O)OC)C1c1cccc(NC(=O)NCCNC2CCN(c3ccccc3OC)CC2)c1 (stereo unspecified),20 nM

# Target: T1, Neuropeptide Y receptor type 1
# Test: Inhibition of binding of [125I]PYY to membranes of SK-N-MC cells expressing the human Y1 receptors
# Type: cell membranes
row,IC50,SMILES
1,25 nM,COC(=O)C1=C(C)N=C(C)/C(=C(/O)OC)C1c1cccc(NC(=O)NCCNC2CCN(c3ccccc3OC(F)(F)F)CC2)c1 (stereo unspecified)
2,4 nM,COC(=O)C1=C(C)N=C(C)/C(=C(/O)OC)C1c1cccc(N/C(=N/CCNC2CCN(c3ccccc3[N+](=O)[O-])CC2)NC#N)c1 (stereo unspecified)
3,4 nM,COC(=O)C1=C(C)N=C(C)/C(=C(/O)OC)C1c1cccc(NC(=O)NCCNC2CCN(c3ccccc3C)CC2)c1 (stereo unspecified)
4,8 nM,COC(=O)C1=C(C)N=C(C)/C(=C(/O)OC)C1c1cccc(NC(=O)NCCNC2CCN(c3cccc(Cl)c3)CC2)c1 (stereo unspecified)
5,4 nM,COC(=O)C1=C(C)N=C(C)/C(=C(/O)OC)C1c1cccc(N/C(=N/CCNC2CCN(c3ccccc3OC)CC2)NC#N)c1 (stereo unspecified)
6,28 nM,COC(=O)C1=C(C)N=C(C)/C(=C(/O)OC)C1c1cccc(N/C(=N/CCNC2CCN(c3ccccc3OC(F)(F)F)CC2)NC#N)c1 (stereo unspecified)
7,31 nM,COC(=O)C1=C(C)N=C(C)/C(=C(/O)OC)C1c1cccc(NC(=O)NCCNC2CCN(c3ccccc3C(F)(F)F)CC2)c1 (stereo unspecified)
8,6 nM,COC(=O)C1=C(C)N=C(C)/C(=C(/O)OC)C1c1cccc(NC(=O)NCCNC2CCN(c3ccccc3O)CC2)c1 (stereo unspecified)
9,39 nM,COC(=O)C1=C(C)N=C(C)/C(=C(/O)OC)C1c1cccc(N/C(=N/CCCN2CCN(c3cccc(OC)c3)CC2)NC#N)c1 (stereo unspecified)
10,2 nM,COC(=O)C1=C(C)N=C(C)/C(=C(/O)OC)C1c1cccc(NC(=O)NCCNC2CCN(c3ccccc3[N+](=O)[O-])CC2)c1 (stereo unspecified)
11,5 nM,COC(=O)C1=C(C)N=C(C)/C(=C(/O)OC)C1c1cccc(NC(=O)NCCNC2CCN(c3ccccc3SC)CC2)c1 (stereo unspecified)
12,3 nM,COC(=O)C1=C(C)N=C(C)/C(=C(/O)OC)C1c1cccc(NC(=O)NCCNC2CCN(c3ccccc3C#N)CC2)c1 (stereo unspecified)
13,2 nM,COC(=O)C1=C(C)N=C(C)/C(=C(/O)OC)C1c1cccc(NC(=O)NCCNC2CCN(c3ccccc3)CC2)c1 (stereo unspecified)
14,3 nM,COC(=O)C1=C(C)N=C(C)/C(=C(/O)OC)C1c1cccc(N/C(=N/CCNC2CCN(c3ccccc3SC)CC2)NC#N)c1 (stereo unspecified)
15,8 nM,COC(=O)C1=C(C)N=C(C)/C(=C(/O)OC)C1c1cccc(N/C(=N/CCNC2CCN(c3cccc(Cl)c3)CC2)NC#N)c1 (stereo unspecified)
16,5 nM,COC(=O)C1=C(C)N=C(C)/C(=C(/O)OC)C1c1cccc(N/C(=N/CCNC2CCN(c3ccccc3O)CC2)NC#N)c1 (stereo unspecified)
17,2 nM,COC(=O)C1=C(C)N=C(C)/C(=C(/O)OC)C1c1cccc(NC(=O)NCCNC2CCN(c3ccccc3OC)CC2)c1 (stereo unspecified)
18,10 nM,COC(=O)C1=C(C)N=C(C)/C(=C(/O)OC)C1c1cccc(N/C(=N/CCNC2CCN(c3ccccc3)CC2)NC#N)c1 (stereo unspecified)
19,4 nM,COC(=O)C1=C(C)N=C(C)/C(=C(/O)OC)C1c1cccc(N/C(=N/CCNC2CCN(c3ccccc3C)CC2)NC#N)c1 (stereo unspecified)
20,14 nM,COC(=O)C1=C(C)N=C(C)/C(=C(/O)OC)C1c1cccc(N/C(=N/CCNC2CCN(c3ccccc3C(F)(F)F)CC2)NC#N)c1 (stereo unspecified)
21,12 nM,COC(=O)C1=C(C)N=C(C)/C(=C(/O)OC)C1c1cccc(NC(=O)NCCCN2CCN(c3ccccc3OC)CC2)c1 (stereo unspecified)
22,3 nM,COC(=O)C1=C(C)N=C(C)/C(=C(/O)OC)C1c1cccc(N/C(=N/CCNC2CCN(c3ccccc3C#N)CC2)NC#N)c1 (stereo unspecified)
